Measurements taken from ChEMBL document CHEMBL1201862, “PubChem BioAssay data set” (2004).
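Tested at 5 concentrations; 48 h exposure; 96-well plates; endpoints linearly interpolated, else capped at highest concentration. GI50 is the concentration that inhibits growth by half.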 The source made the active and inactive calls. Cut-off read from the data, not from the text of the source: active = GI50 up to about 1.1 µM and inactive = higher.

Assays:
Assay in all cases: NCI-60 cell line screen, 48 h
K562 = system: K562
CAKI-1 = system: CAKI-1
OVCAR-3 = system: OVCAR-3
ACHN = system: ACHN
TK-10 = system: TK-10
A549 = system: A549
SN12C = system: SN12C
HCT-116 = system: HCT-116
SF-539 = system: SF-539
MDA-N = system: MDA-N
MDA-MB-435 = system: MDA-MB-435
MCF7 = system: MCF7
HL-60 = system: HL-60
HT-29 = system: HT-29
SNB-19 = system: SNB-19
SK-OV-3 = system: SK-OV-3
SK-MEL-28 = system: SK-MEL-28
RXF 393 = system: RXF 393
HOP-62 = system: HOP-62

Row | SMILES | GI50 (K562) | GI50 (CAKI-1) | GI50 (OVCAR-3) | GI50 (ACHN) | GI50 (TK-10) | GI50 (A549) | GI50 (SN12C) | GI50 (HCT-116) | GI50 (SF-539) | GI50 (MDA-N) | GI50 (MDA-MB-435) | GI50 (MCF7) | GI50 (HL-60) | GI50 (HT-29) | GI50 (SNB-19) | GI50 (SK-OV-3) | GI50 (SK-MEL-28) | GI50 (RXF 393) | GI50 (HOP-62)
1 | Cc1ccsc1C(=S)Nc1ccc(Cl)c(C(=O)OC(C(C)C)C(C)C)c1 | 3.97 µM (inactive) | 19.5 µM (inactive) | 14 µM (inactive) | 25.9 µM (inactive) | 38.1 µM (inactive) | 12.2 µM (inactive) | 24.8 µM (inactive) | 12.1 µM (inactive) | 39.6 µM (inactive) | 23.6 µM (inactive) | 17.7 µM (inactive) | 16.1 µM (inactive) | 11.4 µM (inactive) | 17.4 µM (inactive) | 25.5 µM (inactive) | 28.2 µM (inactive) | 27.1 µM (inactive) |  | 
2 | Oc1ccc(Br)cc1/C=N/c1ccc(Oc2ccc(/N=C/c3cc(Br)ccc3O)cc2)cc1 | > 19.6 µM (inactive) | > 19.6 µM (inactive) | > 19.6 µM (inactive) | > 19.6 µM (inactive) | > 19.6 µM (inactive) | > 19.6 µM (inactive) | > 19.6 µM (inactive) | > 19.6 µM (inactive) | > 19.6 µM (inactive) |  |  |  | > 19.6 µM (inactive) | > 19.6 µM (inactive) | > 19.6 µM (inactive) | > 19.6 µM (inactive) | > 19.6 µM (inactive) | > 19.6 µM (inactive) | > 19.6 µM (inactive)
3 | CCCCCCCCCC(=O)OCC1OC(n2cc(F)c(=O)[nH]c2=O)C(NC(=O)OCc2ccccc2)C(OC(=O)CCCCCCCCC)C1O (stereo unspecified) | 30.1 µM (inactive) | > 100 µM (inactive) | 21.2 µM (inactive) | 58.7 µM (inactive) | 80.9 µM (inactive) | 26.1 µM (inactive) | 15.8 µM (inactive) | 14.9 µM (inactive) | 40.8 µM (inactive) |  |  |  | 24.1 µM (inactive) | 16.9 µM (inactive) | 33.6 µM (inactive) | > 100 µM (inactive) | 42.1 µM (inactive) | 18.8 µM (inactive) | > 100 µM (inactive)
4 | CC(C)(CC(O)C#N)/[N+]([O-])=[N+](\[O-])C(C)(C)CC(O)C#N (stereo unspecified) | 14.4 µM (inactive) | 10.9 µM (inactive) | 22.5 µM (inactive) | 23.2 µM (inactive) | 26.7 µM (inactive) | 57.4 µM (inactive) | 19.3 µM (inactive) | 15.2 µM (inactive) |  | 20.7 µM (inactive) | 32.9 µM (inactive) | 20.7 µM (inactive) |  | 28.4 µM (inactive) | 84.3 µM (inactive) | 29.8 µM (inactive) | 26.6 µM (inactive) | 15.9 µM (inactive) | 19.4 µM (inactive)
5 | CCCCc1c2c([n+]([O-])c3c1CCCC3)CCCC2 | 3.56 µM (inactive) |  | 31 µM (inactive) | 5.12 µM (inactive) | > 100 µM (inactive) | > 100 µM (inactive) | > 100 µM (inactive) | 65.2 µM (inactive) | > 100 µM (inactive) |  |  |  | 38.1 µM (inactive) | > 100 µM (inactive) | 44.4 µM (inactive) | 98.4 µM (inactive) | 32.8 µM (inactive) |  | > 100 µM (inactive)
6 | O=C1CCCc2cc3c(cc21)CCC3C(=O)O (stereo unspecified) | > 100 µM (inactive) | > 100 µM (inactive) |  | > 100 µM (inactive) | > 100 µM (inactive) | > 100 µM (inactive) | > 100 µM (inactive) | > 100 µM (inactive) | > 100 µM (inactive) | > 100 µM (inactive) |  | > 100 µM (inactive) | > 100 µM (inactive) | > 100 µM (inactive) | > 100 µM (inactive) | > 100 µM (inactive) | > 100 µM (inactive) | > 100 µM (inactive) | > 100 µM (inactive)
7 | COC(=O)C(Cc1ccccc1)NC(=O)C(CCC(=O)OCc1ccccc1)NC(=O)OC(C)(C)C (stereo unspecified) | 26.9 µM (inactive) | > 100 µM (inactive) | 50.2 µM (inactive) | 68.9 µM (inactive) | > 100 µM (inactive) | > 100 µM (inactive) | 82.6 µM (inactive) | 44.4 µM (inactive) | > 100 µM (inactive) |  | > 100 µM (inactive) | 82.8 µM (inactive) | 54.8 µM (inactive) | 35.6 µM (inactive) | > 100 µM (inactive) | > 100 µM (inactive) | > 100 µM (inactive) | > 100 µM (inactive) | > 100 µM (inactive)
8 | N#C/C(c1nc2ccccc2[nH]1)=c1\s/c(=C/c2ccc(Cl)cc2)c(=O)n1-c1ccccc1 | > 100 µM (inactive) | > 100 µM (inactive) | > 100 µM (inactive) | > 100 µM (inactive) | > 100 µM (inactive) | > 100 µM (inactive) | > 100 µM (inactive) | > 100 µM (inactive) | > 100 µM (inactive) |  |  |  | > 100 µM (inactive) |  | > 100 µM (inactive) | > 100 µM (inactive) | > 100 µM (inactive) |  | > 100 µM (inactive)
9 | O=C1CCCC1CN1CCCC1 (stereo unspecified) | 0.251 µM (active) | 0.348 µM (active) | 14.2 µM (inactive) | 6.08 µM (inactive) | 12.5 µM (inactive) | > 75.5 µM (inactive) | 17.7 µM (inactive) | 3.44 µM (inactive) | 18.8 µM (inactive) | 13.5 µM (inactive) | 13.1 µM (inactive) | 2.2 µM (inactive) | 0.367 µM (active) | 23.2 µM (inactive) | > 100 µM (inactive) | 13.8 µM (inactive) | 13.6 µM (inactive) |  | > 67 µM (inactive)
10 | CC(C)Nc1[nH]c(C(=O)c2ccccc2)c(N)c1C(=S)Nc1ccccc1 | 60.8 µM (inactive) | > 100 µM (inactive) | > 100 µM (inactive) | 63.1 µM (inactive) | 57.1 µM (inactive) | 90.6 µM (inactive) | > 100 µM (inactive) | 36.1 µM (inactive) | > 100 µM (inactive) | 40.4 µM (inactive) | 30.8 µM (inactive) | 40.4 µM (inactive) | > 100 µM (inactive) | 27.9 µM (inactive) | > 100 µM (inactive) | > 100 µM (inactive) | 17.4 µM (inactive) |  | > 100 µM (inactive)
11 | CCCC(=O)N(C)/N=N/c1ccc(C(=O)OCC)cc1 | > 100 µM (inactive) | > 100 µM (inactive) | > 100 µM (inactive) | > 100 µM (inactive) | > 100 µM (inactive) | > 100 µM (inactive) | > 100 µM (inactive) | > 100 µM (inactive) | > 100 µM (inactive) | > 100 µM (inactive) |  | > 100 µM (inactive) | > 100 µM (inactive) | > 100 µM (inactive) | > 100 µM (inactive) |  | > 100 µM (inactive) | > 100 µM (inactive) | > 100 µM (inactive)
12 | Cc1ccc2oc3c(c(Br)c(Br)n3C)c(=O)c2c1 | > 100 µM (inactive) | 28.4 µM (inactive) | 19.6 µM (inactive) | 16.7 µM (inactive) | 19 µM (inactive) | 20.5 µM (inactive) | 18.3 µM (inactive) | 15.7 µM (inactive) | 20 µM (inactive) |  | > 100 µM (inactive) | 90.6 µM (inactive) | > 100 µM (inactive) | 91.8 µM (inactive) | 17.8 µM (inactive) |  | > 100 µM (inactive) | 16.9 µM (inactive) | 17 µM (inactive)
13 | O=[N+]([O-])c1ccc2nc(/C(=N/Nc3ccccc3)C(O)c3ccc(C(O)/C(=N\Nc4ccccc4)c4nc5ccc([N+](=O)[O-])cc5nc4O)cc3)cnc2c1 (stereo unspecified) | 13.6 µM (inactive) | 60.4 µM (inactive) | > 100 µM (inactive) | 18 µM (inactive) | > 100 µM (inactive) | 48.5 µM (inactive) | 44.1 µM (inactive) | 55.5 µM (inactive) | 55.1 µM (inactive) |  |  |  | 19.3 µM (inactive) | > 100 µM (inactive) | > 100 µM (inactive) | > 100 µM (inactive) | > 100 µM (inactive) | > 100 µM (inactive) | 28.5 µM (inactive)
14 | CC(=O)OCC1OC(n2nc(Cc3ccccc3)c(=S)[nH]c2=S)C(OC(C)=O)C(OC(C)=O)C1OC(C)=O (stereo unspecified) | 26.9 µM (inactive) | 30.7 µM (inactive) | 18.7 µM (inactive) | > 100 µM (inactive) | 57.8 µM (inactive) | 84.1 µM (inactive) | 21.5 µM (inactive) | 21.3 µM (inactive) | 24.9 µM (inactive) |  | 18.1 µM (inactive) | 27.7 µM (inactive) | 0.583 µM (active) | 41.8 µM (inactive) | 27.7 µM (inactive) | 50.7 µM (inactive) | 42.8 µM (inactive) | 22.9 µM (inactive) | 22 µM (inactive)
15 | CC[C@]1(Cc2ccc(OC)c(OC)c2)[C@@H]2C[C@@H](C(=O)OC)ON2O[C@H](OC2CCCC2(c2ccccc2)c2ccccc2)[C@@H]1OC(C)=O (stereo partly specified) | > 100 µM (inactive) | > 100 µM (inactive) | > 100 µM (inactive) | > 100 µM (inactive) | > 100 µM (inactive) | > 100 µM (inactive) | > 100 µM (inactive) | > 100 µM (inactive) |  |  | > 100 µM (inactive) | > 100 µM (inactive) |  | > 100 µM (inactive) | > 100 µM (inactive) | > 100 µM (inactive) | > 100 µM (inactive) | > 100 µM (inactive) | > 100 µM (inactive)
16 | CCn1cc(C(=O)O)c(=O)c2ccc(C)nc21 [NALIDIXIC ACID] | > 100 µM (inactive) | > 100 µM (inactive) | > 100 µM (inactive) | > 100 µM (inactive) | > 100 µM (inactive) | > 100 µM (inactive) | > 100 µM (inactive) | > 100 µM (inactive) | > 100 µM (inactive) | > 100 µM (inactive) | > 100 µM (inactive) | > 100 µM (inactive) | > 100 µM (inactive) | > 100 µM (inactive) | > 100 µM (inactive) |  | > 100 µM (inactive) |  | > 100 µM (inactive)
